Source: patent publication US9458463B2, “Method for treatment of diabetes by a small molecule inhibitor for GRK5” (MAX-PLANCK-GESELLSCHAFT ZUR FÖRDERUNG DER WISSENSCHAFTEN …, priority 2010, dated 2016)
pIC50: −log10 of the molar value.

biological target: T1, full length GRK5 (Homo sapiens, UniProt P34947); experiment: GRK5 kinase activity assay, ADP Glo Kinase Assay technology (Promega); type: biochemical; settings: group II; ADP Glo Kinase Assay (Table 9-B)
T1 construct: 6/2 fold concentrated full length GRK5 (Millipore, #14-714) in reaction buffer; purchased Millipore 14-714
T1 sequence (P34947 whole entry): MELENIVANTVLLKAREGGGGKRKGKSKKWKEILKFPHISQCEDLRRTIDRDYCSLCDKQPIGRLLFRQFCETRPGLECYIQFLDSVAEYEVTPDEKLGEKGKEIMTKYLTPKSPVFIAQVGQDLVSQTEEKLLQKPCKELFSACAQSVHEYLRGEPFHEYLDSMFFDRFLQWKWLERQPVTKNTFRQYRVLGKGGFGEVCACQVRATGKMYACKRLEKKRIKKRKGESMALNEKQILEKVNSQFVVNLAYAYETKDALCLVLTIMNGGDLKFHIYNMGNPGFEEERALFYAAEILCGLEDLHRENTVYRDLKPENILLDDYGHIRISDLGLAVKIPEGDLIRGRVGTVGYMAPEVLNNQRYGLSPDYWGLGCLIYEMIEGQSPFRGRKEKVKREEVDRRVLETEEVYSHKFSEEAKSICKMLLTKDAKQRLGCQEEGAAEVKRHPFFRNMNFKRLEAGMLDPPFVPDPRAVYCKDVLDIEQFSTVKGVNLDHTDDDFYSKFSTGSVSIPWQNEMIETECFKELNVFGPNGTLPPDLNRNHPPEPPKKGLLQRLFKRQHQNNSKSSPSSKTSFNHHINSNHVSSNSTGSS
Procedure: The maximal compound assay concentration was set to 100 μM, representing the compound assay concentration used in the primary screen.
Increasing concentrations of GRK5 are incubated together with 100 μM ATP in the absence and presence of 10 μM casein in a reaction buffer. Within this incubation non-phosphorylated casein is converted into phosphorylated casein and ATP is converted into ADP. Thereafter nonconverted ATP is digested into AMP by addition of the ADP-Glo™ Reagent. Subsequently the ADP that is produced by GRK5 activity is phosphorylated back to ATP by addition of Promega Kinase Detection Reagent. These ATP levels serve as measure for the GRK5 activity and are quantified by a luciferase/luciferin reaction.
For GRK5 kinase activity assay, the following protocol was used:
The reaction buffer used was composed of: 20 mM MES pH 6.0, 1 mM DTT, 10 mM MgCl2, 0.01% Tween20 and the reaction volume was 6 μL.
Firstly 4 μL 6/4 fold concentrated substrate and 6/4 fold concentrated ATP in 1 fold concentrated reaction buffer are added to each well of the assay plate. Subsequently 67 nL […] concentrated test compound in 100% DMSO are added to each well except to C− and C+ wells using pin tool. Then 67 nL 100% DMSO are pipetted to C− (no kinase, no compound) and C+ (no compound) wells using pin-tool and 2 μL reaction buffer are added to C− wells. […] After incubation for 120 min. at room temperature 6 μL ADP-Glo™ Reagent (ADP Glo™ Kinase Assay Kit: Promega, V9101) are added to each well to stop the kinase reaction and deplete the unconsumed ATP. After a second incubation for 40 min. at room temperature 12 μL of Kinase Detection Reagent are added to convert ADP to ATP and start luciferase/luciferin reaction for detection of ATP. […] Finally, after incubation for 40 min at room temperature the luminescence intensity was measured.
The activity of the compounds was classified according to IC50 for binding sites of Grk5 into the following ranges:
8800 Customer compounds were screened for their ability to inhibit the enzymatic activity of GRK5. Screening was performed using the ADP Glo™ Kinase Assay technology (Promega). The small molecular weight compounds were delivered at 10 mM stock concentration and were tested at a final assay concentration of 100 μM.
IC50 values were determined in triplicates at 12 concentrations with a dilution factor of three. Triplicates were measured on three different assay plates. The maximal compound assay concentration was set to 100 μM representing the compound assay concentration used in the primary screen. A larger maximal compound assay concentration could not be achieved since the maximal compound concentration on the compound plates was 10 mM (>1% DMSO concentration in the assay).

Row | Structure (SMILES) | pIC50
1 | Cc1[nH]c(/C=C2\C(=O)Nc3ccc(C(=O)O)cc32)c(C)c1C(=O)NCCN1CCCC1 [II.2] | 5.70 to 6.00
2 | CCC(NC(=O)c1ccc2c(c1)/C(=C/c1[nH]c(C)c(CCC(=O)O)c1C)C(=O)N2)c1cccc(Cl)c1 (stereo not drawn) [II.134, (3Z)-3-(5-{5-[1-(3-chloro-phenyl)-propylcarbamoyl]-2-oxo-1,2-dihydro-indol-3-ylidenemethyl}-2,4-dimethyl-1H-pyrrol-3-yl)-propionic acid] | 5.70 to 6.00
3 | Cc1[nH]c(/C=C2\C(=O)Nc3ccc(C(=O)O)cc32)c(C)c1C(=O)N[C@H](C)c1ccccc1 [II.137, (3Z)-3-[3,5-dimethyl-4-((1R)-1-phenyl-ethylcarbamoyl)-1H-pyrrol-2-ylmethylene]-2-oxo-2,3-dihydro-1H-indole-5-carboxylic acid] | 6.00 to 7.00

same assay, conditions: group II; final assay concentration 5 μM

Row | Structure (SMILES) | inhibition at 5 µM [%]
4 | Cc1[nH]c(/C=C2\C(=O)Nc3ccc(C(=O)O)cc32)c(C)c1C(=O)NC(C)C(=O)O (stereo in doubt) [II.148, (3Z)-3-[4-(1-carboxy-(1R)-ethylcarbamoyl)-3,5-dimethyl-1H-pyrrol-2-ylmethylene]-2-oxo-2,3-dihydro-1H-indole-5-carboxylic acid] | 48
5 | Cc1[nH]c(/C=C2\C(=O)Nc3ccc(C(=O)O)cc32)c(C)c1C(=O)NC(Cc1ccccc1)C(=O)O (stereo in doubt) [II.153, (3Z)-3-[4-((1R)-1-carboxy-2-phenyl-ethylcarbamoyl)-3,5-dimethyl-1H-pyrrol-2-ylmethylene]-2-oxo-2,3-dihydro-1H-indole-5-carboxylic acid] | 56
6 | CC[C@H](NC(=O)c1ccc2c(c1)/C(=C/c1ccc(C(=O)N3CCN(C)CC3)cc1)C(=O)N2)c1ccccc1 [II.58, (3Z)-3-{4-[(4-methylpiperazin-1-yl)carbonyl]benzylidene}-2-oxo-N-[(1S)-1-phenylpropyl]indoline-5-carboxamide] | 96
7 | Cc1[nH]c(/C=C2\C(=O)Nc3ccc(C(=O)N[C@H](C)c4ccc(Cl)cc4)cc32)c(C)c1C(=O)N1CCCCC1 [II.66, (3Z)-N-[(1R)-1-(4-chlorophenyl)ethyl]-3-{[3,5-dimethyl-4-(piperidin-1-ylcarbonyl)-1H-pyrrol-2-yl]methylene}-2-oxoindoline-5-carboxamide] | 76
8 | C[C@@H](NC(=O)c1ccc2c(c1)/C(=C/Nc1ccc(CN3CCCCC3)cc1)C(=O)N2)C1CCCCC1 [II.77, (3Z)-N-[(1R)-1-cyclohexylethyl]-2-oxo-3-({[4-(piperidin-1-ylmethyl)phenyl]amino}methylene)indoline-5-carboxamide] | 98
9 | CCOC(=O)c1c(C)[nH]c(/C=C2\C(=O)Nc3ccc(C(=O)N[C@@H](Cc4ccccc4)C(=O)OC)cc32)c1C [II.157, (3Z)-5-[5-((1S)-1-methoxycarbonyl-2-phenyl-ethylcarbamoyl)-2-oxo-1,2-dihydro-indol-3-ylidenemethyl]-2,4-dimethyl-1H-pyrrole-3-carboxylic II. acid ester ethyl] | 74
10 | COC(=O)CC[C@H](NC(=O)c1c(C)[nH]c(/C=C2\C(=O)Nc3ccc(C(=O)N[C@@H](Cc4ccccc4)C(=O)OC)cc32)c1C)C(=O)OC [II.167, (3Z)-2-({5-[5-((1S)-1-methoxycarbonyl-2-phenyl-ethylcarbamoyl)-2-oxo-1,2-dihydro-indol-3-ylidenemethyl]-2,4-dimethyl-1H-pyrrole-3-carbonyl}-amino)-(S)-pentanedioic acid dimethyl ester] | 81
11 | COc1ccc([C@@H](C)NC(=O)c2ccc3c(c2)/C(=C/c2[nH]c(C)cc2C)C(=O)N3)cc1 [II.170, (3Z)-3-(3,5-dimethyl-1H-pyrrol-2-ylmethylene)-2-oxo-2,3-dihydro-1H-indole-5-carboxylic acid [(1R)-1-(4-methoxy-phenyl)-ethyl]-amide] | 58
12 | CC[C@@H](NC(=O)c1ccc2c(c1)/C(=C/c1[nH]c(C)c(C(=O)N3CCN(C4CCN(C)CC4)CC3)c1C)C(=O)N2)c1ccccc1 [II.181, (3Z)-3-{3,5-dimethyl-4-[4-(1-methyl-piperidin-4-yl)-piperazine-1-carbonyyl]-1H-pyrrol-2-ylmethylene}-2-oxo-2,3-dihydro-1H-indole-5-carboxylic acid ((1R)-1-phenyl-propyl)-amide] | 49
13 | Cc1[nH]c(/C=C2\C(=O)Nc3ccc(C(=O)NCc4c(F)ccc(Cl)c4F)cc32)c(C)c1C(=O)N1CCC[C@H]1CN1CCCC1 [II.187, (3Z)-3-[3,5-dimethyl-4-((2S)-2-pyrrolidin-1-ylmethyl-pyrrolidine-1-carbonyl)-1H-pyrrol-2-ylmethylene]-2-oxo-2,3-dihydro-1H-indole-5-carboxylic acid 3-chloro-2,6-difluoro-benzylamide] | 76
14 | Cc1[nH]c(/C=C2\C(=O)Nc3ccc(C(=O)NCc4c(F)cccc4F)cc32)c(C)c1C(=O)N1CCC[C@H]1CN1CCCC1 [II.189, (3Z)-3-[3,5-dimethyl-4-((2S)-2-pyrrolidin-1-ylmethyl-pyrrolidine-1-carbonyl)-1H-pyrrol-2-ylmethylene]-2-oxo-2,3-dihydro-1H-indole-5-carboxylic acid 2,6-difluoro-benzylamide] | 98
15 | Cc1[nH]c(/C=C2\C(=O)Nc3ccc(C(=O)NCc4c(F)cccc4F)cc32)c(C)c1C(=O)N1CC[C@H](N(C)C)C1 [II.190, (3Z)-3-[4-((3S)-3-dimethylamino-pyrrolidine-1-carbonyl)-3,5-dimethyl-1H-pyrrol-2-ylmethylene]-2-oxo-2,3-dihydro-1H-indole-5-carboxylic acid 2,6-difluoro-benzylamide] | 61
16 | Cc1[nH]c(/C=C2\C(=O)Nc3ccc(C(=O)NCc4c(F)cccc4F)cc32)c(C)c1C(=O)N1CCC[C@@H]1CN1CCCC1 [II.191, (3Z)-3-[3,5-dimethyl-4-((2R)-2-pyrrolidin-1-ylmethyl-pyrrolidine-1-carbonyl)-1H-pyrrol-2-ylmethylene]-2-oxo-2,3-dihydro-1H-indole-5-carboxylic acid 2,6-difluoro-benzylamide] | 66
17 | Cc1[nH]c(/C=C2\C(=O)Nc3ccc(C(=O)NCc4c(F)cccc4F)cc32)c(C)c1C(=O)NCCN1CCCCC1 [II.192, (3Z)-3-[3,5-dimethyl-4-(2-piperidin-1-yl-ethylcarbamoyl)-1H-pyrrol-2-ylmethylene]-2-oxo-2,3-dihydro-1H-indole-5-carboxylic acid 2,6-difluoro-benzylamide] | 86
18 | COc1ccc([C@@H](C)NC(=O)c2ccc3c(c2)/C(=C/c2c[nH]c4ccccc24)C(=O)N3)cc1 [II.193, (3Z)-3-(1H-indol-3-ylmethylene)-2-oxo-2,3-dihydro-1H-indole-5-carboxylic acid [(1R)-1-(4-methoxy-phenyl)-ethyl]-amide] | 88
